Reference: patent US9579334B2, “Iminosugars and methods of treating viral diseases” (Emergent Virology LLC, priority 2009, dated 2017)

What was measured:
Vero cells = experiment: Cytotoxicity towards Vero cells, LDH assay; format: cell-based, African green monkey; settings: for toxicity to the Vero cells: 0.122 up to 500 uM
Description: Procedure. NB-DNJ, NN-DNJ and N7-O-DNJ at concentrations from 0.122 up to 500 uM were tested for cytotoxicity towards Vero cells. Vero cells (Afrika green monkey kidney epithelial cell line) obtained from American Type Culture Collection (ATCC, Manassas, Va.) were plated in cell culture treated 96-well flat bottom plates 24 hr prior to assay. Test were done in modified Eagle medium, supplemented with 2% fetal bovine serum, 2 mM L-glutamine, 100 U/ml penicillin, 100 ug/ml streptomycin, starting at 500 μM compounds, decreasing to 0.122 uM. Cells were cultured at 37° C., 5% CO2 incubator and the plates were assayed by LDH assay (CytoTox96, Promega, Wis.) according to the manufacturer's recommendations for induced cellular damage (release of cytoplasmic enzyme lactate dehydrogenase). OD readings were used to calculate and compare percent cytopathic effect of cells treated with compounds or controls. […] NN-DNJ begins to show toxicity to the cells at concentrations above ˜20 uM.

Dengue 2 strain S221 = experiment: Protection of AG129 mice against Dengue virus (survival); format: in vivo
Description: FIGS. 10 and 11 A-C show protection of mice against Dengue virus by UV-4 (N9-DNJ). In this model, AG129 mice, which are 129/Sv mice lacking receptors for both alpha/beta interferon and IFN-gamma, are infected with Dengue 2 strain S221 via intravenous injection. The mice die of TNF-a mediated acute/early death 4-5 days after infection, see Shresta, S., et al., J Virol, 2006. 80(20): p. 10208-17. Each experiment group contained 5 mice sex matched and 5-6 weeks old. The mice were injected intravenously via the tail vein with 10^11 genomic equivalents of DENV2 strain S221 30 min after the first N9-DNJ dose was administered orally. The N9-DNJ was administered orally twice daily at 200, 100, 50 and 10 mg/kg. The antiviral compound Ribavirin 100 mg/kg was given subcutaneously once daily and included as a positive control together with a PBS-only group. Animals displaying severe illness during the experiment (as determined by 20% weight loss, extreme lethargy, ruffled coat, or paralysis) were euthanized.

## CCCOCCCCCCN1C[C@H](O)[C@@H](O)[C@H](O)[C@H]1CO [N7-O-DNJ, N-(7-Oxadecyl)deoxynojirimycin]
Vero cells
  toxicity to the Vero cells: non-toxic

## COCCCCCCCCCN1C[C@H](O)[C@@H](O)[C@H](O)[C@H]1CO [N9-DNJ, N-(9-Methoxynonyl) deoxynojirimycin]
Dengue 2 strain S221; 10 mg/kg orally twice daily
  survival, p vs. PBS: 0.034
Dengue 2 strain S221; 100 mg/kg orally twice daily
  survival, p vs. PBS: 0.002
Dengue 2 strain S221; DENV2 S221 i.v., orally twice daily at 200, 100, 50 and 10 mg/kg, all drug concentrations
  survival: statistically significant improvement in survival

## CCCCN1C[C@H](O)[C@@H](O)[C@H](O)[C@H]1CO [NB-DNJ, N-Butyl deoxynojirimycin]
Vero cells
  toxicity to the Vero cells: non-toxic

## CCCCCCCCCN1C[C@H](O)[C@@H](O)[C@H](O)[C@H]1CO [NN-DNJ, N-Nonyl dexoynojirimycin]
Vero cells; Vero cells
  concentration above which toxicity to the cells begins to show: > 20 µM
